Measured values published in US4226863A, “7-Methoxy cephalosporins” (Sumitomo Chemical Company, Limited, priority 1975, dated 1980).
In brackets after ≈: the same amount, converted by molar mass.

Tests used:
Type in all cases: cell-based
[1] = test system: Escherichia coli NIHJ; test: antimicrobial activity, minimum inhibitory concentration, Escherichia coli NIHJ
[2] = test system: Proteus vulgaris HX 19; test: antimicrobial activity, minimum inhibitory concentration, Proteus vulgaris HX 19; conditions: HX19
Method: (§1) The antimicrobial activities of the compounds prepared in the previous Examples were determined in a usual manner and the minimum inhibitory concentrations (in terms of μg/ml) are set forth in the Table below.

[3] = test system: Pseudomonas aeruginosa IID 5142; test: antimicrobial activity, minimum inhibitory concentration, Pseudomonas aeruginosa IID 5142; conditions: IID5142
Method: as §1

[4] = test system: Serratia No. 115; test: antimicrobial activity, minimum inhibitory concentration, Serratia No. 115
Method: as §1

[5] = test system: Enterobacter aerogenes No. 101; test: antimicrobial activity, minimum inhibitory concentration, Enterobacter aerogenes No. 101; conditions: Klebsiella aerogenes
Method: as §1

Row | SMILES | MIC [1] [µg/mL] | MIC [2] [µg/mL] | MIC [3] [µg/mL] | MIC [4] [µg/mL] | MIC [5] [µg/mL]
1 | CO[C@@]1(NC(=O)C(NC(=O)c2cnc3nc(SC)ncc3c2O)c2ccc(O)cc2)C(=O)N2C(C(=O)O)=C(COC(N)=O)CS[C@@H]21 (some centres unmarked) [Example 18] | 12.5 (≈ 18.6 µM) | 0.78 (≈ 1.16 µM) | 6.25 (≈ 9.31 µM) | 50 (≈ 74.4 µM) | 12.5 (≈ 18.6 µM)
2 | CO[C@@]1(NC(=O)C(NC(=O)c2cnc3nc(SC)ncc3c2O)c2ccc(O)cc2)C(=O)N2C(C(=O)O)=C(CSc3ccc(O)nn3)CS[C@@H]21 (some centres unmarked) [Example 19] | 6.25 (≈ 8.46 µM) | 0.78 (≈ 1.06 µM) | 3.13 (≈ 4.24 µM) | 25 (≈ 33.8 µM) | 12.5 (≈ 16.9 µM)
3 | CO[C@@]1(NC(=O)C(NC(=O)c2cnc3ccc(SC)nc3c2O)c2ccc(O)c(Cl)c2)C(=O)N2C(C(=O)O)=C(CSc3nnc(CO)s3)CS[C@@H]21 (some centres unmarked) [Example 20] | 3.13 (≈ 3.95 µM) | 0.39 (≈ 0.492 µM) | 3.13 (≈ 3.95 µM) | 6.25 (≈ 7.89 µM) | 6.25 (≈ 7.89 µM)
4 | CNc1nnc(SCC2=C(C(=O)O)N3C(=O)[C@](NC(=O)C(NC(=O)c4cnc5ccc(OC)nc5c4O)c4ccc(O)c(Cl)c4)(OC)[C@H]3SC2)s1 (some centres unmarked) [Example 21] | 1.56 (≈ 2.01 µM) | 0.39 (≈ 0.503 µM) | 3.13 (≈ 4.04 µM) | 12.5 (≈ 16.1 µM) | 6.25 (≈ 8.06 µM)
5 | CCN(CC)c1ccc2ncc(C(=O)NC(C(=O)N[C@]3(OC)C(=O)N4C(C(=O)O)=C(CSc5cnn[nH]5)CS[C@@H]43)c3ccc(O)cc3)c(O)c2n1 (some centres unmarked) [Example 22] | 3.13 (≈ 4.25 µM) | 0.39 (≈ 0.53 µM) | 3.13 (≈ 4.25 µM) | 25 (≈ 34 µM) | 6.25 (≈ 8.49 µM)
6 | CO[C@@]1(NC(=O)C(NC(=O)c2cccnc2O)c2ccc(O)cc2)C(=O)N2C(C(=O)O)=C(COC(N)=O)CS[C@@H]21 (some centres unmarked) [Example 23] | 12.5 (≈ 21.8 µM) | 0.78 (≈ 1.36 µM) | 12.5 (≈ 21.8 µM) | 100 (≈ 174 µM) | 50 (≈ 87.2 µM)
7 | CO[C@@]1(NC(=O)C(NC(=O)c2ncccc2O)c2ccccc2)C(=O)N2C(C(=O)[O-])=C(C[n+]3ccc(C(N)=O)cc3)CS[C@@H]21 (some centres unmarked) [Example 24] | 12.5 (≈ 20.2 µM) | 0.78 (≈ 1.26 µM) | 12.5 (≈ 20.2 µM) | 50 (≈ 80.8 µM) | 25 (≈ 40.4 µM)
8 | CO[C@@]1(NC(=O)C(NC(=O)c2cnc3nc(N4CCNCC4)ncc3c2O)c2ccc(O)cc2)C(=O)N2C(C(=O)O)=C(COC(N)=O)CS[C@@H]21 (some centres unmarked) [Example 25] | 12.5 (≈ 17.6 µM) | 0.78 (≈ 1.1 µM) | 6.25 (≈ 8.81 µM) | 50 (≈ 70.5 µM) | 25 (≈ 35.2 µM)
9 | CO[C@@]1(NC(=O)C(NC(=O)c2cnc3nc(N4CCCC4)cnc3c2O)c2ccc(O)cc2)C(=O)N2C(C(=O)O)=C(CSc3n[nH]c(=S)s3)CS[C@@H]21 (some centres unmarked) [Example 26] | 6.25 (≈ 7.97 µM) | 0.39 (≈ 0.498 µM) | 6.25 (≈ 7.97 µM) | 12.5 (≈ 15.9 µM) | 12.5 (≈ 15.9 µM)
10 | CO[C@@]1(NC(=O)C(NC(=O)c2nccnc2O)c2ccc(O)cc2)C(=O)N2C(C(=O)O)=C(CSc3nnc(C)s3)CS[C@@H]21 (some centres unmarked) [Example 27] | 25 (≈ 38.7 µM) | 1.56 (≈ 2.42 µM) | 25 (≈ 38.7 µM) | 50 (≈ 77.4 µM) | 50 (≈ 77.4 µM)
11 | COC1(NC(=O)C(NC(=O)c2cc3ncccc3nc2O)c2ccc(O)cc2)C(=O)N2C(C(=O)O)=C(CSc3nnnn3C)CSC21 (centres unmarked) [Example 28] | 1.56 (≈ 2.3 µM) | 0.39 (≈ 0.574 µM) | 3.13 (≈ 4.6 µM) | 6.25 (≈ 9.2 µM) | 6.25 (≈ 9.2 µM)
12 | COC1(NC(=O)C(NC(=O)c2cnc3sccc3c2O)c2ccc(O)cc2)C(=O)N2C(C(=O)O)=C(CSc3nnnn3C)CSC21 (centres unmarked) [Example 29] | 12.5 (≈ 18.3 µM) | 0.78 (≈ 1.14 µM) | 6.25 (≈ 9.13 µM) | 12.5 (≈ 18.3 µM) | 12.5 (≈ 18.3 µM)
13 | COC1(NC(=O)C(NC(=O)c2cnc3scnc3c2O)c2ccc(O)cc2)C(=O)N2C(C(=O)O)=C(COC(N)=O)CSC21 (centres unmarked) [Example 30] | 6.25 (≈ 9.91 µM) | 0.39 (≈ 0.618 µM) | 6.25 (≈ 9.91 µM) | 12.5 (≈ 19.8 µM) | 12.5 (≈ 19.8 µM)
14 | COC1(NC(=O)C(NC(=O)c2cnc3cccnc3c2O)c2cccc(O)c2)C(=O)N2C(C(=O)O)=C(CSc3nnc(C)s3)CSC21 (centres unmarked) [Example 31] | 3.13 (≈ 4.5 µM) | 0.39 (≈ 0.561 µM) | 3.13 (≈ 4.5 µM) | 25 (≈ 35.9 µM) | 6.25 (≈ 8.98 µM)
15 | COC1(NC(=O)C(NC(=O)c2cnc3cccnc3c2O)C2=CCC=CC2)C(=O)N2C(C(=O)O)=C(CSc3nnc(C)s3)CSC21 (centres unmarked) [Example 32] | 3.13 (≈ 4.59 µM) | 0.39 (≈ 0.572 µM) | 3.13 (≈ 4.59 µM) | 25 (≈ 36.7 µM) | 6.25 (≈ 9.17 µM)
16 | COC1(NC(=O)C(NC(=O)c2cnccc2O)C2=CCC=CC2)C(=O)N2C(C(=O)O)=C(COC(N)=O)CSC21 (centres unmarked) [Example 33] | 12.5 (≈ 22.3 µM) | 0.39 (≈ 0.697 µM) | 12.5 (≈ 22.3 µM) | 100 (≈ 179 µM) | 50 (≈ 89.4 µM)
